Test results: patent US8729023B2 (priority 2002, dated 2014)
Where “and” joins values, the source holds several entries; their conditions need not be identical. Equal entries are not always repeated.

Experiments:
[1] = system: breast tissue of cancer-free and breast tumor-bearing rats; experiment: Effect of BQ788 on ET-1-induced changes in perfusion, CMBC and velocity of blood cells in breast tissue; type: in vivo, rat
[2] = system: breast tissue of cancer-free and breast tumor-bearing rats; experiment: Effect of ET-1 infusion on blood flow and regional vascular resistance in breast tissue, microspheres; type: in vivo, rat
[3] = Effect of ET-1 infusion on systemic hemodynamics, radioactive microsphere technique; type: in vivo, rat; conditions: ET-1 50 ng/kg/min infusion for 30 minutes
[4] = system: breast tissue of cancer-free and breast tumor-bearing rats; experiment: Effect of ET-1 on perfusion, CMBC and velocity of blood cells in breast tissue, laser Doppler flowmetry; type: in vivo, rat
Experimental: MNU and saline treatments were performed as i.p. injections three months prior to the studies. Rats were palpated regularly starting four weeks after the treatments. Once tumors reached about 4-8 mm in diameter, experiments were initiated.
Rats were initially divided into two groups, each receiving one of the following treatments: • Group I: ET-1 (50 ng/kg/min) infusion for 30 minutes in rats treated with saline (normal rats) (N=6); and • Group II: ET-1 (50 ng/kg/min) infusion for 30 minutes in treated with MNU (50 mg/kg, i.p.; tumor rats) (N=6).
Systemic hemodynamic and regional circulation parameters were determined at baseline, 30, 60, and 120 minutes after starting ET-1 (50 ng/kg/min) infusion.
Blood perfusion to the mammary gland of the rats was measured using laser Doppler flowmetry. See Song et al., Int J Radiat Oncol Biol Phys, 18:903 (1990); Song et al., Int J Radiat Oncol Biol Phys, 17:1041 (1989). The animals were shaved around the nipples. The skin surrounding the mammary glands was dissected out as a lambeau about 6 cm wide and about 4 cm long. A standard model fiber optic probe was applied to the surface of the lambeau, and secured to the tissue by double stick tape. The lambeau was placed in a metal holder and taped down to prevent movement, then connected to a Periflux PF2b 4000 Laser Doppler Flowmetry (Perimed K B, Stockholm, Sweden). The time constant was set at 1.5 seconds and the bandwidth was set at 4 KHz. Data were analyzed using analysis of variance followed by Duncan's test. A level of p<0.05 was considered significant.

in vivo = conditions: female, Sprague Dawley, rat
[5] = rat, in vivo
[6] = system: MNU-induced breast tumors; conditions: rat, in vivo
[7] = system: human melanoma cells (UISO-MEL-2) tumor; conditions: nude, mouse, in vivo
[8] = system: JHU-4 (MAT-LyLu) prostate tumor; conditions: rat, in vivo
[9] = normal saline-treated rats, ET-1 50 ng/kg/min infusion for 30 minutes
[10] = tumor-bearing rats, at 30 minutes
[11] = tumor-bearing rats, at 60 minutes
[12] = tumor-bearing rats, at 120 minutes
[13] = female, Sprague Dawley, iv, 3 nmol/kg

## CCCC[C@@H](NC(=O)[C@@H](Cc1cn(C(=O)OC)c2ccccc12)NC(=O)[C@H](CC(C)(C)C)NC(=O)N1[C@H](C)CCC[C@@H]1C)C(=O)O [BQ788, N-cis-2,6-dimethylpiperidinocarbonyl-L-gamma-methyll-eucyl-D-1-methoxycarbonyltrptophanyl-D-Nle]
[1]; after BQ788 infusion
  CMBC of tumor-bearing versus normal rats: no difference
  velocity of RBC, tumor-bearing versus normal rats: no difference
[1]; following ET-1 administration in BQ788 pretreated rats
  perfusion in breast tissue of tumor-bearing rats versus normal rats: No difference
[1]; normal rats, BQ788 0.5 μmol/kg infusion for 20 minutes followed by ET-1 50 ng/kg/min for 30 minutes
  blood perfusion in the breast tissue: did not change significantly
[1]; tumor-bearing rats
  effect of pretreatment on the increase in perfusion induced by ET-1: attenuated

## CC[C@H](C)[C@H](NC(=O)[C@H](CC(=O)O)NC(=O)[C@H](CC(C)C)NC(=O)[C@H](Cc1c[nH]cn1)NC(=O)[C@@H]1CSSC[C@H](N)C(=O)N[C@@H](CO)C(=O)N[C@H]2CSSC[C@H](NC(=O)[C@H](CCC(=O)O)NC(=O)[C@H](CCCCN)NC(=O)[C@H](CC(=O)O)NC(=O)[C@H](CCSC)NC(=O)[C@H](CC(C)C)NC(=O)[C@H](CO)NC(=O)[C@H](CO)NC2=O)C(=O)N[C@@H](C(C)C)C(=O)N[C@@H](Cc2ccc(O)cc2)C(=O)N[C@@H](Cc2ccccc2)C(=O)N1)C(=O)N[C@H](C(=O)N[C@@H](Cc1c[nH]c2ccccc12)C(=O)O)[C@@H](C)CC [ET-1]
[2]; at 60 minutes following ET-1 administration
  vascular resistance in tumor-bearing rats, difference compared to normal rats: 147%
[2]; at 60 minutes following administration of ET-1 50 ng/kg/min
  increase in blood flow to the breast tissue of tumor-bearing rats as compared to normal rats: 153%
[2]; [9]
  change in blood flow to the breast tissue: No significant change
  change in vascular resistance in breast tissue: No significant change
[3]; normal rats
  change in HR: No significant change
[3]; normal rats, at 30 minutes
  increase in MAP: 14.5%
[3]; normal rats, at 60 minutes
  CO decrease: 22.9%
  SV decrease: 20.9%
[3]; normal rats, at 120 minutes
  CO decrease: 42.5%
  SV decrease: 36%
  TPR increase: 49.2%
  decrease in MAP: 17.8%
[3]; tumor-bearing (MNU treated) rats, at 30 minutes
  increase in MAP: 19.1%
[3]; tumor-bearing (MNU treated) rats, at 60 minutes
  increase in MAP: 15.3%
[3]; tumor-bearing rats
  change in HR: No change
[3]; [10]
  CO decrease: 29.4%
  SV decrease: 31.1%
  TPR increase: 73.9%
[3]; [11]
  CO decrease: 16.7%
  SV decrease: 17.9%
  TPR increase: 39.7%
[3]; [12]
  CO decrease: 36.1%
  SV decrease: 32.1%
  TPR increase: 71.4%
[4]; 120 minutes after ET-1 administration
  velocity of RBC in tumor-bearing rats: returned to baseline
[4]; at 60 and 120 minutes following ET-1 administration
  perfusion in the breast tissue of tumor-bearing rats: returned to baseline
[4]; at 30 minutes following ET-1 administration
  perfusion in the breast tissue of tumor-bearing rats, increase compared to normal rats: 176%
[4]; at 60 minutes post ET-1 administration
  CMBC in tumor-bearing rats, increase as compared to normal rats: 54%
[4]; at 120 minutes after ET-1 administration
  CMBC in tumor-bearing rats: returned to baseline
[4]; normal rats, after ET-1 50 ng/kg/min infusion
  blood perfusion in the breast tissue: did not significantly change
[4]; tumor-bearing rats, at 30 minutes post ET-1 administration
  velocity of RBC, increase compared to normal rats: 252%

## CC(=O)O[C@H]1C(=O)[C@@]2(C)[C@H]([C@H](OC(=O)c3ccccc3)[C@]3(O)C[C@H](OC(=O)[C@H](O)[C@@H](NC(=O)c4ccccc4)c4ccccc4)C(C)=C1C3(C)C)[C@]1(OC(C)=O)CO[C@@H]1C[C@@H]2O [paclitaxel]
In vivo
  MRT: 27.9 ± 19.8 h
  half-life: 1.8 ± 0.6 min
In vivo; iv, 3 nmol/kg
  Cmax: 6730 ± 540 ng/mL
  MRT: 27.9 ± 19.8 h
  MRT inf: 17.4 ± 8.13 h
In vivo; iv, 3 nmol/kg, AUC0-∞
  AUC(0-inf): 9420 ± 3180 ng·h/mL
In vivo; iv, 3 nmol/kg, Cl
  clearance: 11.5 mL/min/kg
In vivo; iv, 3 nmol/kg, Vd
  Vd: 10.1 ± 4.18 L/kg
In vivo; iv, 3 nmol/kg, Vss
  Vd: 10.3 ± 4.54 L/kg
[5]; female, Sprague Dawley
  K10: 3.14 ± 1.34
  K12: 56.47 ± 27.69
  K13: 5.71 ± 3.37
  βt½: 1.0 ± 0.32 h
  γt½: 25.87 ± 17.81 h
[5]; female, Sprague Dawley, iv
  AUC of paclitaxel: 9433.53 ± 1465.00 ng·h/mL
  elimination half-life of paclitaxel: 8.4 ± 4.8 min
[5]; [13]
  AUC0-∞: 9430 ± 1470 ng·h/mL
  Cl: 9.33 ± 1.2 mL/min/kg
  Vss: 8.14 ± 2.95 L/kg
  α t1/2: 0.03 ± 0.01
  β t1/2: 1.0 ± 0.32
  γ t1/2: 25.87 ± 17.81
[5]
  clearance calculated as Dose/AUC: 9.33 ± 1.2 mL/min/kg
[6]
  percent of tumors progressed: 71.4% and 61.1%
  percent of tumors regressing in size: 9.5%
  percent of tumors remaining in stasis: 22.2% and 19.5%
  reduction in tumor volume as compared to control rats: 60.0%
  regression (FIG. 13): 33.8±19.4%
  tumor multiplicity, new tumor occurrence: 78.3% and 41%
  tumor regression rate: 37.7±16.2%
  tumor volume: 1960.8±611.9 mm^3 and 1682.7±497.3 mm^3
  tumors regressed compared to control rats: 45.9±11.5%
[7]
  tumor [^3H]paclitaxel concentration: 40.77 nmol/g tissue

## COc1cccc2c1C(=O)c1c(O)c3c(c(O)c1C2=O)C[C@@](O)(C(=O)CO)C[C@@H]3O[C@H]1C[C@H](N)[C@H](O)[C@H](C)O1 [saline+DOX, doxorubicin]
[8]
  maximum decrease in body weight: −8.46±3.88
